Assay: xn = mol fraction of the nth substance listed

Cc1cccc[n+]1CCCO.[Cl-] + O
viscosity [mPa·s], 100 kPa
Conditions	x1 = 0.0008999	x1 = 0.001798	x1 = 0.003589	x1 = 0.005379	x1 = 0.007153	x1 = 0.00892
293.15 K	1.041	1.068	1.116	1.161	1.203	1.243
298.15 K	0.922	0.945	0.987	1.026	1.063	1.098
303.15 K	0.822	0.841	0.877	0.911	0.943	0.974
308.15 K	0.739	0.756	0.788	0.818	0.846	0.874
313.15 K	0.668	0.682	0.709	0.736	0.761	0.786

O=P([O-])(O)O.[NH4+] + O
viscosity [mPa·s], 101 kPa
Conditions	293.15 K	303.15 K	313.15 K	323.15 K
x1 = 0.017	1.312	1.049	0.855	0.71
x1 = 0.038	1.826	1.442	1.17	0.972
x1 = 0.063	–	2.196	1.749	1.438
x1 = 0.095	–	–	–	2.325

OCCOCCOCCOCCOCCOCCOCCO + O
viscosity [mPa·s], 100 kPa
Conditions	293.15 K	298.15 K	303.15 K	308.15 K	313.15 K	318.15 K	323.15 K
x2 = 0.059	97.27	73.66	57.03	45.14	36.26	29.64	24.53
x2 = 0.088	93.78	71.34	53.69	42.57	34.29	28	23.21
x2 = 0.188	92.26	69.66	53.76	42.35	33.98	27.72	22.88
x2 = 0.221	92.02	69.89	53.68	42.29	33.97	27.67	22.86

OCCOCCOCCOCCOCCOCCOCCOCCO + O
viscosity [mPa·s], 100 kPa
Conditions	293.15 K	298.15 K	303.15 K	308.15 K	313.15 K	318.15 K	323.15 K
x2 = 0.042	108.4	81.84	63.33	50.05	40.2	32.83	27.17
x2 = 0.111	107.4	81.02	62.63	49.38	39.67	32.32	26.74
x2 = 0.267	103	77.64	60.34	47.5	38.03	30.97	25.55
x2 = 0.294	98.4	74.46	57.33	45.14	36.19	29.5	24.36
